Here are results for 26 molecules from patent publication US20180057505A1, “BICYCLIC HETEROARYL COMPOUNDS USEFUL AS INHIBITORS OF THE PAR-2 SIGNALING PATHWAY” (VERTEX PHARMACEUTICALS INCORPORATED, priority 2015, published 2018).

Common to all, as to assay type: cell-based
The test system of assay [1] is Thrombin-stimulated Ca2+ response in HT-29 cells. Description: Ca FLIPR TETRA assay, ANTAGONIST mode, activator 1 U/mL Thrombin. To be noted: for IC50: Homo sapiens, HT-29 cells, activator 1 U/mL Thrombin. The protocol: (§1) Protocol for Testing PAR2 Compounds in ANTAGONIST Mode Using the Ca FLIPR^TETRA Assay (384 Well).
(§2) 23000 HT-29 cells (ATCC# HTB-38) were plated in 384-well black, transparent-flat bottom plates and incubated in 25 uL of 1% FBS/McCoy's media ON at 37° C. under an atmosphere of 5% CO2. The following day, 25 uL FLIPR calcium 5 Molecular Devices assay reagent (Cat: R-8186) was added. Plates were incubated at 37° C. and r. t. for 45 min and 15 min, respectively. Compounds dilutions were prepared in 100% DMSO using a Biomek FX and diluted 20-fold in HBSS and then 5.5 uL was added directly to the cells by the FLIPR^TETRA (10× dilution) using FLIPR Tetra Pipette tips, black, non-sterile, 384 Molecular Devices (Cat: 9000-0764).
(§3) A first read was performed to determine whether the test compounds on their own can activate Ca^2+ responses. The cells were incubated with the compounds for 30 min at r. t. and then read in ANTAGONIST mode in the same plate by stimulating with 6.2 uL of a fixed concentration of the activator: final concentrations 8 μM SLIGKV, 1 U/mL Thrombin, 3.1 U/mL trypsin, or 0.6 μM UTP.

The test system of assay [2] is UTP-stimulated Ca2+ response in HT-29 cells. Description: Ca FLIPR TETRA assay, ANTAGONIST mode, activator 0.6 μM UTP. To be noted: Homo sapiens; for IC50: HT-29 cells, activator 0.6 μM UTP; for inhibition at 50 µM: HT-29. The procedure: as §1, §2, §3
In assay [3] the target is T1, PAR2 (HT-29 cells) (Homo sapiens, UniProt P55085).
T1 construct: host or cells: HT-29
T1 sequence (P55085 26-397): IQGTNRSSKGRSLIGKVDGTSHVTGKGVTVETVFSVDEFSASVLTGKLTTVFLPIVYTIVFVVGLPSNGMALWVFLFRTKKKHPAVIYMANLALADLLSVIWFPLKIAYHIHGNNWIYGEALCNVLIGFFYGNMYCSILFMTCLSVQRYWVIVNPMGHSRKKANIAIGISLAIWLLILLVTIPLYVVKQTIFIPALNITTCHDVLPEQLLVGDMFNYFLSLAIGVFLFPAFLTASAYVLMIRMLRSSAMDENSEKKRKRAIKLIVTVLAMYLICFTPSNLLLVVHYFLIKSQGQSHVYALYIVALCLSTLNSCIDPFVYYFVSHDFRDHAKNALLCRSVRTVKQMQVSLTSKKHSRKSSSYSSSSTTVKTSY
Description: Ca FLIPR TETRA assay, ANTAGONIST mode, activator 3.1 U/mL trypsin. The following applies: HT-29 cells, activator 3.1 U/mL trypsin; maximal antagonist concentration per Method (A: 0.1, 1 or 2 μM; B: 50 μM). The protocol: as §1, §2, §3

For assay [4], the target named is T1, PAR2 (HT-29 cells). Briefly: Ca FLIPR TETRA assay, ANTAGONIST mode, activator 8 μM SLIGKV. The following applies: HT-29 cells, activator 8 μM SLIGKV; maximal antagonist concentration per Method (A: 0.1, 1 or 2 μM; B: 50 μM). The procedure: as §1, §2, §3

Broadly, the IC50 is the concentration at which inhibition is half-maximal. For `CC(C)c1cc(-c2ccc(F)cc2)nc2cc(C(=O)N3CCN(C(=O)CC#N)CC3(C)C)oc12` [Example I-9], the IC50 came to 9600 nM in assay [1], 4500 nM in assay [2], 83 nM at PAR2 (HT-29 cells) [3] and 90 nM on PAR2 (HT-29 cells) [4].
For `CC(C)c1cc(-c2ccc(F)cc2)nc2cc(C(=O)N3CCN(C(=O)C4CCCO4)CC3(C)C)oc12` (centres unmarked) [Example I-10], the IC50 in assay [1] was determined as 15000 nM; in assay [2] it was 16000 nM; at PAR2 (HT-29 cells) [3] it was 27 nM; on PAR2 (HT-29 cells) [4], 23 nM.
As a reminder, the inhibition is how much of the control response was suppressed. Regarding `CC(C)c1cc(-c2ccc(F)cc2)nc2cc(C(=O)N3CCN(C(=O)c4ccccc4)CC3(C)C)oc12` [Example I-11], the figures for the IC50 (in assay [1]; at PAR2 (HT-29 cells) [3]; on PAR2 (HT-29 cells) [4]) were 1400 nM, 3.5 nM and 2.4 nM, respectively. For the same molecule, the inhibition at 50 µM in assay [2] was determined as 59%.
On to `CC(C)c1cc(-c2ccc(F)cc2)nc2cc(C(=O)N3CCN(C(=O)C(O)C(C)C)CC3(C)C)oc12` (centres unmarked) [Example I-12], for which the IC50 in assay [1] worked out at 8700 nM; in assay [2] it was 5800 nM; on PAR2 (HT-29 cells) [3], 8.6 nM; at PAR2 (HT-29 cells) [4], 8.3 nM.
The matching figures for `CC(C)c1cc(-c2ccc(F)cc2)nc2cc(C(=O)N3CCN(C(=O)c4ccno4)CC3(C)C)oc12` [Example I-13]: 1000 nM, 1200 nM, 4.5 nM and 3 nM.
Consider `CC(C)c1cc(-c2ccc(F)cc2)nc2cc(C(=O)N3CCN(C(=O)C(C)(C)C)CC3(C)C)oc12` [Example I-14], for which the “Thrombin, % @ 50” value in assay [1] (@ 50 (μM)) stood at 57% @ 50. Besides, the inhibition at 50 µM in assay [2] was 59%. For the same molecule, the IC50 at PAR2 (HT-29 cells) [3] amounted to 3 nM; at PAR2 (HT-29 cells) [4], 2.8 nM.
For `CC(C)c1cc(-c2ccc(F)cc2)nc2cc(C(=O)N3CCN(C(=O)[C@H](C)O)CC3(C)C)oc12` [Example I-15], the IC50 was found to be 14000 nM in assay [1], 14000 nM in assay [2], 190 nM on PAR2 (HT-29 cells) [3] and 230 nM at PAR2 (HT-29 cells) [4].
As for `CC(C)c1cc(-c2ccc(F)cc2)nc2cc(C(=O)N3CCN(C(=O)C(C)(C)F)CC3(C)C)oc12` [Example I-16], the IC50 in assay [1] came to 6900 nM; at PAR2 (HT-29 cells) [3], 6.8 nM; at PAR2 (HT-29 cells) [4], 7.2 nM. Also, the inhibition at 50 µM in assay [2] was 61%.
As to `COCC(=O)N1CCN(C(=O)c2cc3nc(-c4ccc(F)cc4)cc(C(C)C)c3o2)C(C)(C)C1` [Example I-17], the IC50 stood at 14000 nM in assay [1], 15000 nM in assay [2], 67 nM at PAR2 (HT-29 cells) [3] and 59 nM on PAR2 (HT-29 cells) [4].
As to `CC(C)c1cc(-c2ccc(F)cc2)nc2cc(C(=O)N3CCN(C(=O)[C@H](O)CC(C)(C)C)CC3(C)C)oc12` [Example I-18], the IC50 in assay [1] amounted to 7900 nM; in assay [2] it was 17000 nM; on PAR2 (HT-29 cells) [3], 1.1 nM; at PAR2 (HT-29 cells) [4] it was 1.4 nM.
The matching figures for `CC(C)c1cc(-c2ccc(F)cc2)nc2cc(C(=O)N3CCN(C(=O)C4(C)CC4)CC3(C)C)oc12` [Example I-19]: 10000 nM, 5700 nM, 4.4 nM and 5.6 nM.
`CC#CC(=O)N1CCN(C(=O)c2cc3nc(-c4ccc(F)cc4)cc(C(C)C)c3o2)C(C)(C)C1` [Example I-20]: the IC50 amounted to 7100 nM in assay [1], 1500 nM in assay [2], 10 nM at PAR2 (HT-29 cells) [3] and 11 nM on PAR2 (HT-29 cells) [4].
With `CC(C)c1cc(-c2ccc(F)cc2)nc2cc(C(=O)N3CCN(C(=O)CC(C)(C)C)CC3(C)C)oc12` [Example I-21], the results for the IC50 (in assay [1]; on PAR2 (HT-29 cells) [3]; on PAR2 (HT-29 cells) [4]) were > 50000 nM, 2.6 nM and 1.4 nM, respectively. Moreover, the inhibition at 50 µM in assay [2] is 59%.
Consider `CC(C)c1cc(-c2ccc(F)cc2)nc2cc(C(=O)N3CCN(C(=O)C4CC4(C)C)CC3(C)C)oc12` (centres unmarked) [Example I-22], for which the IC50 in assay [1] is > 50000 nM; at PAR2 (HT-29 cells) [3], 2 nM; at PAR2 (HT-29 cells) [4], 2.4 nM. Besides, the inhibition at 50 µM in assay [2] came to 64%.
For the molecule `CC(C)c1cc(-c2ccc(F)cc2)nc2cc(C(=O)N3CCN(C(=O)C4(O)CCOCC4)CC3(C)C)oc12` [Example I-23], the IC50 in assay [1] stood at 7800 nM; in assay [2] it was 11000 nM; at PAR2 (HT-29 cells) [3], 71 nM; on PAR2 (HT-29 cells) [4], 80 nM.
The matching figures for `CC(=O)N1CCN(C(=O)c2cc3nc(-c4ccc(F)cc4)cc(C(C)C)c3o2)C(C)(C)C1` [Example I-24]: 8700 nM, 9900 nM, 44 nM and 48 nM.
The matching figures for `CC1(c2cc(-c3ccc(F)cc3)nc3cc(C(=O)N4CCNC(=O)C4(C)C)oc23)CC1` [Example I-25]: 4300 nM, 2700 nM, 18 nM and 14 nM.
The matching figures for `CC1(c2cc(-c3ccc(F)cc3)nc3cc(C(=O)N4CCN(C(=O)C5(O)CC5)CC4(C)C)oc23)CC1` [Example I-26]: 4800 nM, 7000 nM, 8 nM and 6.1 nM.
For `CC(C)(O)C(=O)N1CCN(C(=O)c2cc3nc(-c4ccc(F)cc4)cc(C4(C)CC4)c3o2)C(C)(C)C1` [Example I-27], the IC50 in assay [1] was found to be 6000 nM; in assay [2], 7400 nM; on PAR2 (HT-29 cells) [3], 33 nM; on PAR2 (HT-29 cells) [4], 19 nM.
The matching figures for `CC[C@@H](O)C(=O)N1CCN(C(=O)c2cc3nc(-c4ccc(F)cc4)cc(C4(C)CC4)c3o2)C(C)(C)C1` [Example I-28]: 8800 nM, 11000 nM, 3.5 nM and 4.2 nM.
For `CO[C@H](C)C(=O)N1CCN(C(=O)c2cc3nc(-c4ccc(F)cc4)cc(C4(C)CC4)c3o2)C(C)(C)C1` [Example I-29], in that order: 19000 nM, 16000 nM, 32 nM and 23 nM.
Regarding `CC1(c2cc(-c3ccc(F)cc3)nc3cc(C(=O)N4CCN(C(=O)[C@H]5CCCO5)CC4(C)C)oc23)CC1` [Example I-30], the IC50 in assay [1] turned out to be 20000 nM; in assay [2], 13000 nM; on PAR2 (HT-29 cells) [3] it was 14 nM; on PAR2 (HT-29 cells) [4] it was 16 nM.
For `CC1(c2cc(-c3ccc(F)cc3)nc3cc(C(=O)N4CCN(C(=O)C(O)C5CC5)CC4(C)C)oc23)CC1` (centres unmarked) [Example I-31], in that order: > 50000 nM, > 50000 nM, 21000 nM and 17000 nM.
The matching figures for `CC(C)[C@@H](O)C(=O)N1CCN(C(=O)c2cc3nc(-c4ccc(F)cc4)cc(C4(C)CC4)c3o2)C(C)(C)C1` [Example I-32]: 11000 nM, 6700 nM, 4.6 nM and 5.9 nM.
As for `CC1(c2cc(-c3ccc(F)cc3)nc3cc(C(=O)N4CCN(C(=O)[C@H]5CCC(=O)O5)CC4(C)C)oc23)CC1` [Example I-33], the IC50 in assay [1] was determined as 3600 nM; in assay [2], 5800 nM; on PAR2 (HT-29 cells) [3], 64 nM; at PAR2 (HT-29 cells) [4], 94 nM.
Turning to `CCCCC(O)C(=O)N1CCN(C(=O)c2cc3nc(-c4ccc(F)cc4)cc(C4(C)CC4)c3o2)C(C)(C)C1` (centres unmarked) [Example I-34], the half-inhibitory concentration (IC50) in assay [1] is > 25000 nM; in assay [2], 26000 nM; on PAR2 (HT-29 cells) [3] it was 5.9 nM; on PAR2 (HT-29 cells) [4], 4.6 nM.
